Earlier results on one compound are cited in patent EP0700285B1, “A DRUG DELIVERY COMPOSITION FOR ALPHA-ADRENO RECEPTOR BLOCKING AGENTS” (SYNTHELABO, priority 1993, dated 1994).

For the compound `COc1cc2nc(N(C)CCCNC(=O)C3CCCO3)nc(N)c2cc1OC` (centres unmarked) [alfuzosin], for the setting “after intravenous administration”, the “plasma elimination half life (mean)” value is 4.8 h. Under “after oral administration”, the mean half life was 4.8 h. For the same compound, the mean oral bioavailability (immediate release dosage form) is reported as 64%. Moreover, under “in vivo”, the “parent compound excreted unchanged in the urine” value is given as 11% and the volume of distribution is reported as 2.5 L/kg.
